Measurements taken from US20060003030A1, “Essential oils for treating and/ or preventing allergic disease” (priority 2004, published 2006).
Converted amounts (≈) assume the structure as drawn.

What was measured:
[1] = tested on: PAF-induced platelet aggregation; assay: Inhibitory activity of essential oils on PAF-induced platelet aggregation; type: cell-based, New Zealand rabbit; settings: rabbit washed platelet suspension, PAF added 2 min after sample, aggregation observed 4 min
Method: The anticoagulant “acid-citrate-dextrose” (ACD) was added to the blood taken from a New Zealand rabbit in a ratio of 1:6 by volume. The resulting blood was centrifuged at 190 g for 15 min at room temperature. After centrifugation, the supernatant containing platelet-rich plasma (PRP) was taken and 0.2 M EDTA was added. The resulting supernatant was centrifuged at 1000 g for 1.5 min. After centrifugation, the pellet containing RBC and WBC was removed and then PRP was centrifuged at 1000 g for 11 min. After centrifugation, the supernatant was removed and the platelet pellet was suspended in Ca^2+--free Tyrode's buffer (containing 1 mM Ca2+). […] The turbidity was determined with a Platelet Aggregation Chromogenic Kinetic System.
0.5 ml of platelet suspension was added to silicon-coated cuvette and put in a Platelet Aggregation Chromogenic Kinetic System and bathed for 2 min at 37° C. […] The ratio of aggregation was calculated by the following formula: Ratio of aggregation %=(absorptivity before adding PAF−absorptivity after adding PAF/(absorptivity before adding PAF−absorptivity of Tyrode's buffer)×100% The ratio of inhibition was calculated by the following formula: Ratio of inhibition %=100%−(ratio of aggregation of sample/ratio of aggregation of control×100%)

[2] = tested on: mouse macrophage cell line RAW 264.7; assay: Inhibitory effect of essential oils on NO production by LPS-activated mouse macrophage cell line (Griess reagent); type: cell-based; settings: positive control, concentration not given; LPS (Inducer) 60 ± 0.5, Blank 3.5 ± 0.3
Method: The mouse macrophage cell line RAW 264.7 was purchased from Bioresources Collection & Research Center, Taiwan and numbered CCRC 60001. The cells were added to Dulbecco's Modified Eagle Medium (DMEM, GibcoBRL) containing 10% (v/v) fetal bovine serum (FBS, GibcoBRL) and then incubated in a CO2 incubator containing 5% CO2 at 37° C. The cells grow to 90% density and are then washed with phosphate buffered saline (PBS). The cells were colleted and diluted with fresh DMEM to the appropriate concentration.
The mouse macrophage cells were transferred in a 96-well plate in a concentration of 10,000 cells/well. After incubating for 24 hours, the cells were activated with the medium containing 100 μg/ml Lipopolysaccharide (LPS, SIGMA) and 100·μg/ml Interferon-γ (INF-γ, GibcoBRL). Meanwhile, the essential oils of herbal medicine in different concentrations were added to the wells. After incubating for 24 hours, 50 μl of supernatants were respectively taken and put into a 96-well plate. […] Then, the absorbance of the resulting cell supernatants was determined with a microplate reader at a wavelength of […]. The percentage of nitric oxide can be calculated by the following formula: % nitric oxide=(sample absorptivity/control absorptivity)×100%.

IC50 [1] [µg/mL]	Structure (SMILES)	Nitric oxide [2] [µM]
1420 (≈ 2400 µM)	CCCCCCCCCCCCCCCCCCNC(=O)OCC(COP(=O)([O-])OCC[n+]1ccsc1)OC (centres unmarked) [CV-3988]	–
–	CNC(=N)NCCC[C@H](N)C(=O)O [L-NMMA]	25 ± 0.6
